Results as given in patent US7235580B2, “Mitotic kinesin inhibitors” (Merck & Co., Inc., priority 2002, dated 2007).

Biological target: T1, human KSP motor domain (KSP(367H)) (Homo sapiens, UniProt P52732)
T1 construct: were used to amplify the motor domain and the neck linker region; made in house; host or cells: E. coli BL21 (DE3), pRSETa
T1 sequence (P52732 18-359 limits assumed): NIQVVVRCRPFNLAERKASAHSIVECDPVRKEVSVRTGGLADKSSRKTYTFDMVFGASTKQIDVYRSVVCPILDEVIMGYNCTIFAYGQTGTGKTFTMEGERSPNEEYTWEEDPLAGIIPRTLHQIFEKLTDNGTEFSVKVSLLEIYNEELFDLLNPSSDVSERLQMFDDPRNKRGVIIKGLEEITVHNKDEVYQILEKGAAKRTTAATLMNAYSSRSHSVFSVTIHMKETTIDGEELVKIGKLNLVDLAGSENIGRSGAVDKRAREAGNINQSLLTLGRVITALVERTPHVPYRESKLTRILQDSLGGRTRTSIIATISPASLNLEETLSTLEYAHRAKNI
Assay: Kinesin ATPase In Vitro Assay
Format: biochemical
Details: kinesin motor domain with microtubules, 1 mM ATP, 23° C.; free phosphate by quinaldine red/ammonium molybdate
Source text: I. Kinesin ATPase In Vitro Assay
Cloning and Expression of Human Poly-histidine Tagged KSP Motor Domain (KSP(367H))
Plasmids for the expression of the human KSP motor domain construct were cloned by PCR using a pBluescript full length human KSP construct (Blangy et al., Cell, vol. 83, pp 1159-1169, 1995) as a template. The N-terminal primer 5′-[…] (SEQ.ID.NO.: 1) and the C-terminal primer 5′-[…] […] (SEQ.ID.NO.: 2) were used to amplify the motor domain and the neck linker region. The PCR products were digested with AseI and XhoI, ligated into the NdeI/XhoI digestion product of pRSETa (Invitrogen) and transformed into E. coli BL21 (DE3).
Cells were grown at 37° C. to an OD600 of 0.5. After cooling the culture to room temperature expression of KSP was induced with 100 μM IPTG and incubation was continued overnight. Cells were pelleted by centrifugation and washed once with ice-cold PBS. Pellets were flash-frozen and stored −80° C.
Cell pellets were thawed on ice and resuspended in lysis buffer (50 mM K-HEPES, pH 8.0, 250 mM KCl, 0.1% Tween, 10 mM imidazole, 0.5 mM Mg-ATP, 1 mM PMSF, 2 mM benzimidine, 1× complete protease inhibitor cocktail (Roche)). Cell suspensions were incubated with 1 mg/ml lysozyme and 5 mM β-mercaptoethanol on ice for 10 minutes, followed by sonication (3×30 sec). All subsequent procedures were performed at 4° C. Lysates were centrifuged at 40,000×g for 40 minutes. Supernatants were diluted and loaded onto an SP Sepharose column (Pharmacia, 5 ml cartridge) in buffer A (50 mM K-HEPES, pH 6.8, 1 mM MgCl2, 1 mM EGTA, 10 μM Mg-ATP, 1 mM DTT) and eluted with a 0 to 750 mM KCl gradient in buffer A. Fractions containing KSP were pooled and incubated with Ni-NTA resin (Qiagen) for one hour. The resin was washed three times with buffer B (Lysis buffer minus PMSP and protease inhibitor cocktail), followed by three 15-minute incubations and washes with buffer B. Finally, the resin was incubated and washed for 15 minutes three times with buffer C (same as buffer B except for pH 6.0) and poured into a column. KSP was eluted with elution buffer (identical to buffer B except for 150 mM KCl and 250 mM imidazole). KSP-containing fractions were pooled, made 10% in sucrose, and stored at −80° C.
Microtubules are prepared from tubulin isolated from bovine brain. Purified tubulin (>97% MAP-free) at 1 mg/ml is polymerized at 37° C. in the presence of 10 μM paclitaxel, 1 mM DTT, 1 mM GTP in BRB80 buffer (80 mM K-PIPES, 1 mM EGTA, 1 mM MgCl2 at pH 6.8). The resulting microtubules are separated from non-polymerized tubulin by ultracentrifugation and removal of the supernatant. The pellet, containing the microtubules, is gently resuspended in 10 μM paclitaxel, 1 mM DTT, 50 μg/ml ampicillin, and 5 μg/ml chloramphenicol in BRB80.
The kinesin motor domain is incubated with microtubules, 1 mM ATP (1:1 MgCl2: Na-ATP), and compound at 23° C. in buffer containing 80 mM K-HEPES (pH 7.0), 1 mM EGTA, 1 mM DTT, 1 mM MgCl2, and 50 mM KCl. The reaction is terminated by a 2-10 fold dilution with a final buffer composition of 80 mM HEPES and 50 mM EDTA. Free phosphate from the ATP hydrolysis reaction is measured via a quinaldine red/ammonium molybdate assay by adding 150 μl of quench C buffer containing a 2:1 ratio of quench A:quench B. Quench A contains 0.1 mg/ml quinaldine red and 0.14% polyvinyl alcohol; quench B contains 12.3 mM ammonium molybdate tetrahydrate in 1.15 M sulfuric acid. The reaction is incubated for 10 minutes at 23° C., and the absorbance of the phospho-molybdate complex is measured at 540 nm.

For CN1CCC(N(C)C(=O)N2CC(c3cc(F)ccc3F)=C[C@@]2(CO)c2ccccc2)CC1 (stereo in doubt) [Compound 1-10, 4-(2,5-Difluorophenyl)-2-(hydroxymethyl)-N-methyl-N-(1-methylpiperidin-4-yl)-2-phenyl-2,5-dihydro-1H-pyrrole-1-carboxamide], the IC50 was at most 50 µM.
For CN(C)C(=O)N1CC(c2cc(F)ccc2F)=CC1(CO)c1ccccc1 (stereo not shown) [Compound 1-9, 4-(2,5-Difluorophenyl)-2-(hydroxymethyl)-N,N-dimethyl-2-phenyl-2,5-dihydro-1H-pyrrole-1-carboxamide], the IC50 was at most 50 µM.
With COCC1(c2ccccc2)C=C(c2cc(F)ccc2F)CN1C(=O)N(C)C (stereo not shown) [Compound 2-1, 4-(2,5-Difluorophenyl)-2-(methoxymethyl)-N,N-dimethyl-2-phenyl-2,5-dihydro-1H-pyrrole-1-carboxamide] the IC50 was at most 50 µM.
CN(C)C(=O)N1CC(c2cc(F)ccc2F)=CC1(COCCO)c1ccccc1 (stereo not shown) [Compound 2-2, 4-(2,5-Difluorophenyl)-2-[(2-hydroxyethoxy)methyl]-N,N-dimethyl-2-phenyl-2,5-dihydro-1H-pyrrole-1-carboxamide] gave an IC50 of at most 50 µM.
In the case of CN(C)C(=O)N1CC(c2cc(F)ccc2F)=CC1(COCCN)c1ccccc1 (stereo not shown) [Compound 2-3, 2-[(2-Aminoethoxy)methyl]-4-(2,5-difluorophenyl)-N,N-dimethyl-2-phenyl-2,5-dihydro-1H-pyrrole-1-carboxamide], the IC50 is reported as at most 50 µM.
Compound CN(C)CCNCC1(c2ccccc2)C=C(c2cc(F)ccc2F)CN1C(=O)N(C)C (stereo not shown) [Compound 3-2, 4-(2,5-Difluorophenyl)-2-({[2-(dimethylamino)ethyl]amino}methyl)-N,N-dimethyl-2-phenyl-2,5-dihydro-1H-pyrrole-1-carboxamide] has an IC50 of at most 50 µM.
Compound CN(C)C(=O)N1CC(c2cc(F)ccc2F)=CC1(CCCO)c1ccccc1 (stereo not shown) [Compound 4-1a, 2-(3-Hydroxypropyl)-4-(2,5-difluorophenyl)-N,N-dimethyl-2-phenyl-2,5-dihydro-1H-pyrrole-1-carboxamide] has an IC50 of at most 50 µM.
For CN(C)C(=O)N1CC(c2cc(F)ccc2F)=CC1(CCCN)c1ccccc1 (stereo not shown) [Compound 4-3, 2-(3-Aminopropyl)-4-(2,5-difluorophenyl)-N,N-dimethyl-2-phenyl-2,5-dihydro-1H-pyrrole-1-carboxamide], the IC50 was at most 50 µM.
Work on CN(C)CCCC1(c2ccccc2)C=C(c2cc(F)ccc2F)CN1C(=O)N(C)C (stereo not shown) [Compound 4-4, 4-(2,5-Difluorophenyl)-2-[3-(dimethylamino)propyl]-N,N-dimethyl-2-phenyl-2,5-dihydro-1H-pyrrole-1-carboxamide] yielded an IC50 of at most 50 µM.
In the case of CN(C)CC(=O)N1CCC(N(C)C(=O)N2CC(c3cc(F)ccc3F)=CC2(CO)c2ccccc2)CC1 (stereo not shown) [Compound 7-3, 4-(2,5-difluorophenyl)-N-[1-(N,N-dimethylglycyl)piperidin-4-yl]-2-(hydroxymethyl)-N-methyl-2-phenyl-2,5-dihydro-1H-pyrrole-1-carboxamide], the IC50 is reported as at most 50 µM.
In the case of CN(C(=O)N1CC(c2cc(F)ccc2F)=CC1(CO)c1ccccc1)C1CCN(CC(F)F)CC1 (stereo not shown) [Compound 10-1, N-[1-(2,2-difluoroethyl)piperidin-4-yl]-4-(2,5-difluorophenyl)-2-(hydroxymethyl)-N-methyl-2-phenyl-2,5-dihydro-1H-pyrrole-1-carboxamide], the IC50 is reported as at most 50 µM.
With CN(C(=O)N1CC(c2cc(F)ccc2F)=CC1(CO)c1ccccc1)C1CCN(CCO)CC1 (stereo not shown) [Compound 11-1, 4-(2,5-difluorophenyl)-N-[1-(2-hydroxyethyl)piperidin-4-yl]-2-(hydroxymethyl)-N-methyl-2-phenyl-2,5-dihydro-1H-pyrrole-1-carboxamide] the IC50 was at most 50 µM.
With CN(C(=O)N1CC(c2cc(F)ccc2F)=C[C@@]1(CO)c1ccccc1)C1CCN(CCF)CC1 [Compound 12-1, (2S)-4-(2,5-difluorophenyl)-N-[1-(2-fluoroethyl)piperidin-4-yl]-2-(hydroxymethyl)-N-methyl-2-phenyl-2,5-dihydro-1H-pyrrole-1-carboxamide] the IC50 was at most 50 µM.
